In patent US20140315886A1, “QUINAZOLINES AS THERAPEUTIC COMPOUNDS AND RELATED METHODS OF USE” (OTSUKA PHARMACEUTICAL CO., LTD., priority 2011, published 2014):

The molecules below were run against T1, purified STEP46 enzyme (Homo sapiens, UniProt P54829) (assay: STEP46 biochemical assay (DiFMUP fluorescence phosphatase assay)). Settings: DiFMUP 10 μM, read-out: STEP IC50.
T1 sequence (P54829 197-565 limits assumed): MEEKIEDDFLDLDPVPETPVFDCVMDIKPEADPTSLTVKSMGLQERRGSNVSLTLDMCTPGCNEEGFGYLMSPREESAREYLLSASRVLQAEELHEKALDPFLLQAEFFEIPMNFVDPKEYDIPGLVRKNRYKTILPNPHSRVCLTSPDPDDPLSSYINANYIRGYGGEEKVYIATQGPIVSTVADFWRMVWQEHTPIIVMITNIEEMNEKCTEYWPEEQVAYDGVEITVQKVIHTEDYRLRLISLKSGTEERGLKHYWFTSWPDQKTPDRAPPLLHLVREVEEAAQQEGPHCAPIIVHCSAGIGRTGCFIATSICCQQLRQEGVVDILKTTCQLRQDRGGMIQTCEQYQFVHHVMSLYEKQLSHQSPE
Procedure, shortened: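 Purified human STEP46 preincubated 30 min at room temperature with compounds in Hepes/DTT/Brij35 buffer (2% DMSO final), then reacted with 10 μM DiFMUP for 90 min at 27°C; fluorescence read at 360/460 nm. IC50 from four-parameter fit; activation shown as negative % inhibition at 25, 50, 100 uM.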

Question: How did the IC50 turn out when `CNc1nc(-c2cccnc2)nc2c(F)cc(-c3cccc(C#N)c3)cc12` [Compound 570] was run?
Answer: < 1000 nM

Question: For `CNc1nc(-c2cccnc2)nc2c(F)cc(-c3ccc(C#N)cc3)cc12` [Compound 571], which IC50 is on record?
Answer: 1000 to 10000 nM

Question: `CNc1nc(-c2cccnc2)nc2c(F)cc(-c3cc(F)ccc3F)cc12` [Compound 572] was tested. Which IC50 did it give?
Answer: 1000 to 10000 nM

Question: With `CNc1nc(-c2cccnc2)nc2c(F)cc(-c3ccc(OC)cc3)cc12` [Compound 573] as the molecule, how does the IC50 read?
Answer: 1000 to 10000 nM

Question: Which IC50 does the source give for `CNc1nc(-c2cccnc2)nc2c(F)cc(-c3cccc(OC)c3)cc12` [Compound 574] here?
Answer: 1000 to 10000 nM

Question: For `CNc1nc(-c2cccnc2)nc2c(F)cc(-c3c(F)cccc3F)cc12` [Compound 575], which IC50 is on record?
Answer: 1000 to 10000 nM

Question: Which IC50 does the source give for `CNc1nc(-c2cccnc2)nc2cc(F)c(-c3cccc(F)c3)cc12` [Compound 584] here?
Answer: 1000 to 10000 nM

Question: `CNc1nc(-c2cccnc2)nc2cc(F)c(-c3ccc(F)cc3)cc12` [Compound 587] was tested. Which IC50 did it give?
Answer: 1000 to 10000 nM

Question: Which IC50 does the source give for `CNc1nc(-c2cccnc2)nc2cc(F)c(-c3cc(F)cc(F)c3)cc12` [Compound 588] here?
Answer: 1000 to 10000 nM

Question: With `CNc1nc(-c2cccnc2)nc2cc(F)c(-c3cccc(C#N)c3)cc12` [Compound 589] as the molecule, how does the IC50 read?
Answer: 1000 to 10000 nM

Question: How did the IC50 turn out when `CNc1nc(-c2cccnc2)nc2cc(F)c(-c3cccc(OC)c3)cc12` [Compound 590] was run?
Answer: 1000 to 10000 nM

Question: How did the IC50 turn out when `CNc1nc(-c2cccnc2)nc2cc(F)c(-c3ccc(F)c(F)c3)cc12` [Compound 591] was run?
Answer: < 1000 nM

Question: For `CNc1nc(-c2cccnc2)nc2cc(F)c(-c3ccc(C#N)cc3)cc12` [Compound 592], which IC50 is on record?
Answer: 1000 to 10000 nM

Question: How did the IC50 turn out when `CNc1nc(-c2cccnc2)nc2cc(F)c(-c3ccccc3OC)cc12` [Compound 593] was run?
Answer: > 10000 nM

Question: With `CNc1nc(-c2cccnc2)nc2cc(F)c(-c3cccc(F)c3F)cc12` [Compound 594] as the molecule, how does the IC50 read?
Answer: 1000 to 10000 nM

Question: `c1ccc(CNc2nc(-c3cccnc3)nc3ccc(-c4cccs4)cc23)nc1` [Compound 601] was tested. Which IC50 did it give?
Answer: 1000 to 10000 nM

Question: With `c1ccc(CNc2nc(-c3cccnc3)nc3ccc(-c4ccoc4)cc23)nc1` [Compound 602] as the molecule, how does the IC50 read?
Answer: 1000 to 10000 nM

Question: How did the IC50 turn out when `CC(Nc1nc(-c2cccnc2)nc2ccc(-c3ccccc3F)cc12)c1ccccc1` (stereo not drawn) [Compound 603] was run?
Answer: 1000 to 10000 nM

Question: `CC(Nc1nc(-c2cccnc2)nc2ccc(-c3cccc(F)c3)cc12)c1ccccc1` (stereo not drawn) [Compound 604] was tested. Which IC50 did it give?
Answer: 1000 to 10000 nM

Question: For `CC(Nc1nc(-c2cccnc2)nc2ccc(-c3ccc(F)cc3)cc12)c1ccccc1` (stereo not drawn) [Compound 605], which IC50 is on record?
Answer: 1000 to 10000 nM

Question: For `CC(Nc1nc(-c2cccnc2)nc2ccc(-c3cccc(F)c3F)cc12)c1ccccc1` (stereo not drawn) [Compound 606], which IC50 is on record?
Answer: 1000 to 10000 nM

Question: `CC(Nc1nc(-c2cccnc2)nc2ccc(-c3ccc(F)cc3F)cc12)c1ccccc1` (stereo not drawn) [Compound 607] was tested. Which IC50 did it give?
Answer: 1000 to 10000 nM

Question: `COc1cc(-c2ccc(F)cc2F)cc2c(N3CC(OC)C3)nc(-c3cccnc3)nc12` [Compound 741] was tested. Which IC50 did it give?
Answer: 1000 to 10000 nM

Question: For `CNc1nc(-c2cnccn2)nc2ccc(-c3ccc(F)cc3F)c(F)c12` [Compound 976], which IC50 is on record?
Answer: 1000 to 10000 nM

Question: `CNc1nc(-c2cnccn2)nc2ccc(-c3ccc(F)c(F)c3)c(F)c12` [Compound 977] was tested. Which IC50 did it give?
Answer: 1000 to 10000 nM

Question: How did the IC50 turn out when `CNc1nc(-c2cnccn2)nc2ccc(-c3cc(F)cc(F)c3)c(F)c12` [Compound 980] was run?
Answer: 1000 to 10000 nM

Question: With `CNc1nc(-c2cnccn2)nc2c(F)c(-c3ccc(F)cc3F)ccc12` [Compound 995] as the molecule, how does the IC50 read?
Answer: 1000 to 10000 nM
